Key:
Experiment in all cases: relative viability (nuclei count vs DMSO), 5 days (fraction); higher = more cells survive
[1] = test system: NCI-H1792
Procedure, shortened: (§1)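 A single step with final 0.05% Triton X-100, 1% formaldehyde and 1 ug/ml Hoechst fixed the cells and stained nuclei 5 days after treatment. Lung cancer cell lines in 1536-well plates had been treated by pin tool the day after seeding with one drug alone or a fixed anchor-drug dose plus five library-drug doses (not always all listed) in √10 steps, and nuclei were counted on 4× images. Relative viability is the ratio of nuclei in treated wells to nuclei in vehicle wells, taken as the median of duplicate plates.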

[2] = test system: A-427
Procedure, shortened: as §1

[3] = test system: NCI-H322M
Procedure, shortened: as §1

[4] = test system: NCI-H3122
Procedure, shortened: as §1

[5] = test system: NCI-H1437
Procedure, shortened: as §1

[6] = test system: PC-14
Procedure, shortened: as §1

[7] = test system: EKVX
Procedure, shortened: as §1

[8] = test system: LCLC-97TM1
Procedure, shortened: as §1

[9] = test system: LK-2
Procedure, shortened: as §1

[10] = test system: NCI-H1915
Procedure, shortened: as §1

[11] = test system: LXF-289
Procedure, shortened: as §1

[12] = test system: NCI-H2087
Procedure, shortened: as §1

[13] = test system: COR-L23
Procedure, shortened: as §1

[14] = test system: ABC-1
Procedure, shortened: as §1

[15] = test system: NCI-H460
Procedure, shortened: as §1

[16] = test system: NCI-H661
Procedure, shortened: as §1

[17] = test system: NCI-H1666
Procedure, shortened: as §1

[18] = test system: NCI-H1563
Procedure, shortened: as §1

[19] = test system: NCI-H647
Procedure, shortened: as §1

[20] = test system: NCI-H727
Procedure, shortened: as §1

[21] = test system: NCI-H2085
Procedure, shortened: as §1

[22] = test system: NCI-H2126
Procedure, shortened: as §1

[23] = test system: LC-2-ad
Procedure, shortened: as §1

Nc1cccc2c1CN(C1CCC(=O)NC1=O)C2=O (stereo not given) [Lenalidomide] + COc1cccc2cc(-c3nc([C@H]4CC[C@H](C(=O)O)CC4)n4ncnc(N)c34)[nH]c12 [OSI-027] (partner 0.5 µM)
relative viability ([1]; first compound 0.253 µM): 0.682 | relative viability ([1]; first compound 0.8 µM): 0.709 | relative viability ([1]; first compound 2.53 µM): 0.722 | relative viability ([1]; first compound 8 µM): 0.756 | relative viability ([2]; first compound 0.253 µM): 0.48 | relative viability ([2]; first compound 0.8 µM): 0.387 | relative viability ([2]; first compound 2.53 µM): 0.473 | relative viability ([2]; first compound 8 µM): 0.514 | relative viability ([3]; first compound 0.253 µM): 0.53 | relative viability ([3]; first compound 0.8 µM): 0.527 | relative viability ([3]; first compound 2.53 µM): 0.609 | relative viability ([3]; first compound 8 µM): 0.558 | relative viability ([4]; first compound 0.253 µM): 0.97 | relative viability ([4]; first compound 0.8 µM): 1.21 | relative viability ([4]; first compound 2.53 µM): 0.914 | relative viability ([4]; first compound 8 µM): 0.898 | relative viability ([5]; first compound 0.253 µM): 0.888 | relative viability ([5]; first compound 0.8 µM): 1.11 | relative viability ([5]; first compound 2.53 µM): 0.993 | relative viability ([5]; first compound 8 µM): 0.956 | relative viability ([6]; first compound 0.253 µM): 0.791 | relative viability ([6]; first compound 0.8 µM): 0.853 | relative viability ([6]; first compound 2.53 µM): 1.2 | relative viability ([6]; first compound 8 µM): 1.02 | relative viability ([7]; first compound 0.253 µM): 0.724 | relative viability ([7]; first compound 0.8 µM): 0.734 | relative viability ([7]; first compound 2.53 µM): 0.696 | relative viability ([7]; first compound 8 µM): 0.702 | relative viability ([8]; first compound 0.253 µM): 0.544 | relative viability ([8]; first compound 0.8 µM): 0.454 | relative viability ([8]; first compound 2.53 µM): 0.661 | relative viability ([8]; first compound 8 µM): 0.563 | relative viability ([9]; first compound 0.253 µM): 0.215 | relative viability ([9]; first compound 0.8 µM): 0.19 | relative viability ([9]; first compound 2.53 µM): 0.191 | relative viability ([9]; first compound 8 µM): 0.182 | relative viability ([10]; first compound 0.253 µM): 0.61 | relative viability ([10]; first compound 0.8 µM): 0.653 | relative viability ([10]; first compound 2.53 µM): 0.646 | relative viability ([10]; first compound 8 µM): 0.615 | relative viability ([11]; first compound 0.253 µM): 0.832 | relative viability ([11]; first compound 0.8 µM): 0.823 | relative viability ([11]; first compound 2.53 µM): 0.871 | relative viability ([11]; first compound 8 µM): 0.772 | relative viability ([12]; first compound 0.253 µM): 0.679 | relative viability ([12]; first compound 0.8 µM): 0.501 | relative viability ([12]; first compound 2.53 µM): 0.521 | relative viability ([12]; first compound 8 µM): 0.712 | relative viability ([13]; first compound 0.253 µM): 0.781 | relative viability ([13]; first compound 0.8 µM): 0.776 | relative viability ([13]; first compound 2.53 µM): 0.892 | relative viability ([13]; first compound 8 µM): 0.787 | relative viability ([14]; first compound 0.253 µM): 0.453 | relative viability ([14]; first compound 0.8 µM): 0.489 | relative viability ([14]; first compound 2.53 µM): 0.533 | relative viability ([14]; first compound 8 µM): 0.481 | relative viability ([15]; first compound 0.253 µM): 0.643 | relative viability ([15]; first compound 0.8 µM): 0.679 | relative viability ([15]; first compound 2.53 µM): 1.01 | relative viability ([15]; first compound 8 µM): 0.709 | relative viability ([16]; first compound 0.253 µM): 0.722 | relative viability ([16]; first compound 0.8 µM): 0.689 | relative viability ([16]; first compound 2.53 µM): 0.849 | relative viability ([16]; first compound 8 µM): 0.729 | relative viability ([17]; first compound 0.253 µM): 0.822 | relative viability ([17]; first compound 2.53 µM): 0.927 | relative viability ([17]; first compound 8 µM): 0.894 | relative viability ([18]; first compound 0.253 µM): 0.751 | relative viability ([18]; first compound 0.8 µM): 0.8 | relative viability ([18]; first compound 2.53 µM): 0.804 | relative viability ([18]; first compound 8 µM): 0.72 | relative viability ([19]; first compound 0.253 µM): 0.587 | relative viability ([19]; first compound 0.8 µM): 0.551 | relative viability ([19]; first compound 2.53 µM): 1.02 | relative viability ([19]; first compound 8 µM): 0.744 | relative viability ([20]; first compound 0.253 µM): 0.523 | relative viability ([20]; first compound 0.8 µM): 0.446 | relative viability ([20]; first compound 2.53 µM): 0.609 | relative viability ([20]; first compound 8 µM): 0.562 | relative viability ([21]; first compound 0.253 µM): 0.818 | relative viability ([21]; first compound 0.8 µM): 0.518 | relative viability ([21]; first compound 2.53 µM): 0.879 | relative viability ([21]; first compound 8 µM): 0.784 | relative viability ([22]; first compound 0.253 µM): 0.66 | relative viability ([22]; first compound 0.8 µM): 0.609 | relative viability ([22]; first compound 2.53 µM): 0.663 | relative viability ([22]; first compound 8 µM): 0.593 | relative viability ([23]; first compound 0.253 µM): 0.856 | relative viability ([23]; first compound 2.53 µM): 0.912 | relative viability ([23]; first compound 8 µM): 0.887
